Source: PubChem BioAssay (NCI)
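Values below derive from 48-hour exposures of cells grown in 96-well plates, with endpoints linearly interpolated between the two concentrations bracketing the appropriate inhibition level. TGI: concentration producing complete growth inhibition.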

How the values were obtained:
Assay in all cases: NCI anticancer screen, dose series, 48 h
[1] = test system: HCT-116 colon
[2] = test system: MOLT-4 leukemia
[3] = test system: NCI-H23 lung
[4] = test system: NCI-H460 lung
[5] = test system: NCI-H522 lung
[6] = test system: OVCAR-5 ovarian
[7] = test system: U251 CNS
[8] = test system: DU-145 prostate
[9] = test system: MCF7 breast
[10] = test system: MDA-MB-231 breast

Row | SMILES | TGI [1] [µM] | TGI [2] [µM] | TGI [3] [µM] | TGI [4] [µM] | TGI [5] [µM] | TGI [6] [µM] | TGI [7] [µM] | TGI [8] [µM] | TGI [9] [µM] | TGI [10] [µM]
1 | CCOC(=O)c1ncoc1[C@H]1COC(C)(C)O1 | > 100 | > 100 | > 100 | > 100 | > 100 | > 100 | > 100 |  |  | 
2 | CN1CCN(c2nc3ccccc3nc2C(=O)c2ccc(Cl)cc2)CC1 | > 100 | > 100 | > 100 | 80.2 | > 100 | > 100 | > 100 | > 100 | > 100 | 
3 | CCCCCCCCCCCCCCCC(=O)ON1C(=S)NC(C)(c2ccccc2)C1=S (stereo unspecified) | > 100 | > 100 | > 100 | > 100 |  | > 100 |  | > 100 | > 100 | > 100
4 | O=C(NCCN1C(=O)CN=C(c2ccc(Cl)cc2)c2cc(Cl)ccc21)OCc1ccccc1 | 24.8 | > 100 | 33.8 | 32.4 | 49.9 | 49.7 | 30.1 | 37.7 |  | 32.3
5 | Cc1c(C(=O)CSc2nc3ccc([N+](=O)[O-])cc3[nH]2)c(=O)n(-c2ccccc2)n1C | > 100 | > 100 | > 100 | > 100 | > 100 | > 100 | > 100 |  |  | 
6 | CNNC1=NS(=O)(=O)c2cc(C)c(Cl)cc2S1 | > 10 | > 10 | > 10 | > 10 | > 10 | > 10 | > 10 | > 10 |  | > 10
7 | CC(C)C1CC=NN1C(=O)OC(C)(C)C (stereo unspecified) | > 100 | > 100 | > 100 | > 100 | > 100 | > 100 |  | > 100 | > 100 | 
8 | CC(O)c1c2c(cc3c1CC1(C3)Cc3cc4c(c(C(C)O)c3C1)CCC4)CCC2 (stereo unspecified) | 24.8 | 26.3 | 40.4 |  | 30 | 50.2 | 29.3 |  | 59.5 | 34.8
9 | O=C1CC2CC=C[C@H]3c4cc5c(cc4C(=O)N1C23)OCO5 (stereo partly specified) | > 50 | > 50 | > 50 | > 50 | > 50 |  | > 50 |  |  | 
10 | CC(=O)Oc1c(C)cc(-c2cc(C)c(OC(C)=O)c(C)c2)cc1C | > 100 | > 100 | 42.8 | > 100 | 98.2 | > 100 | 39.5 | > 100 | > 100 | 
11 | O=C1C=C(N2CCCC2)C=C(N2CCCC2)C1 | > 100 | > 100 | > 100 | > 100 | > 100 | > 100 | > 100 |  |  | 
12 | CCOc1ccc(N2C(=O)C3c4[nH]c5ccccc5c4C4CCC(C(C)(C)C)CC4C3C2=O)cc1 (stereo unspecified) | > 100 | > 100 | > 100 |  | > 100 |  | > 100 |  |  | 
13 | CC(=O)Oc1ccccc1[C@H]1CC(=O)C[C@H](c2ccccc2OC(C)=O)C12C(=O)c1ccccc1C2=O | 88.9 | > 100 | 90.5 | 60.3 | 92.8 | > 100 | > 100 | > 100 |  | 94.6
14 | COc1cc([C@@H]2c3cc4c(cc3[C@H](OC3OC5COC(C(C)C)OC5C(O)C3O)C3COC(=O)[C@@H]32)OCO4)cc(OC)c1O (stereo partly specified) | 13.5 | > 100 | 15.4 | 10.2 | 37.1 | 25 | 10.5 |  | 16 | 28.8
15 | CCN(CC)CCNC(=O)c1ccc([N+](=O)[O-])cc1OC | > 100 | > 100 | > 100 | > 100 | > 100 | > 100 | > 100 |  |  | 
16 | O=C(O)C(CS)NCc1c2ccccc2[n+]([O-])c2ccccc12 (stereo unspecified) | 62.4 | 78.9 | > 100 | > 100 | > 100 | > 100 | > 100 |  |  | 
17 | O=C1Nc2cccc3ncn(c23)C2=C1CCCC2 | > 100 | > 100 | > 100 | > 100 | > 100 | > 100 | > 100 |  |  | 
18 | Cc1cc(S(N)(=O)=O)c(SCc2nc(N)nc(N(C)C)n2)cc1Cl | > 10 | > 10 | > 10 | > 10 | > 10 | > 10 | > 10 | > 10 | > 10 | 
19 | S=C(NNC1=NCCCN1)Nc1ccccc1 | > 100 | > 100 | > 100 | > 100 | > 100 | > 100 | > 100 |  | > 100 | 
20 | CC(=O)Nc1ccc(Nc2cc(=O)n(C)c(=O)[nH]2)cc1 | > 100 | > 100 | > 100 | > 100 | > 100 | > 100 | > 100 |  | > 100 | > 100
21 | Cc1ccc(-c2sc(-c3ccc(C)cc3)c3c2C2CCC3C2)cc1 | > 50 | > 50 | > 50 | > 50 | > 50 | > 50 | > 50 | > 50 |  | > 50
